Data reported in patent US20090281090A1, “BIOMARKERS FOR THE PREDICTION OF RESPONSIVENESS TO CLOZAPINE TREATMENT” (NOVARTIS AG, priority 2004, published 2009).

How the values were obtained:
[1] = tested on: patients with schizophrenia or schizoaffective disorders; assay: InterSePT pharmacogenetic analysis: DAT1 3'UTR VNTR polymorphism vs Type 1 event / drug response; type: in vivo, human; conditions: for Adjusted Hazard Ratio (95% CI), association between VNTR polymorphism and Type 1 event: Cox model adjusted for age, gender, substance abuse, lifetime suicide attempts; for Unadjusted Hazard Ratio (95% CI), association between VNTR polymorphism and Type 1 event: Cox proportional hazards model
Description: Association between a VNTR polymorphism in the 3′UTR region of the DAT1 gene and clozapine response. The objective of this EXAMPLE was to evaluate potential association between a VNTR polymorphism in the 3′UTR region of the Dopamine Transporter 1 gene (SLC6A3; DAT1) and drug response in the patients with schizophrenia or schizoaffective disorders treated with clozapine.
A retrospective pharmacogenetic analysis was conducted in an attempt to evaluate potential association between a variable number of tandem repeats (VNTR) polymorphism in the 3′UTR region of the DAT1 gene and drug response in the patients with schizophrenia or schizoaffective disorders treated with clozapine.
A multicenter, randomized, two-year study comparing the risk for suicidal behaviour in patients treated with clozapine vs olanzapine had already been conducted in patients with schizophrenia or schizoaffective disorders (see above). […] See, published PCT patent application WO 2004/074513.
Genotyping. Four hundred and two samples from the patients enrolled in the InterSePT study (see above) were collected and genotyped for the VNTR polymorphism. A total of 402 subjects enrolled in the InterSePT study consented to Pharmacogenetics study in accordance with protocols approved by local ethics committees. 15 ml of blood were collected from the patients at the trial sites. The DNA was extracted by Covance (Indianapolis, USA) using the PUREGENE™ DNA Isolation Kit (D50K) according to the manufacturer's recommendations. VNTR genotyping was performed using PCR approach as described by Kidd (Kidd Laboratory, http://info.med.yale.edu/genetics/kkidd/SLC6A3—3VNTR.html). The sense and antisense PCR primers were 5′-GGTGTAGGGAACGGCCTGAGAG-3′ (SEQ ID NO:3) and 5′-CTTCCTGGAGGTCACGGCTCAAGG-3′ (SEQ ID NO:4), respectively. Approximately 100-200 ng of genomic DNA was needed for each assay. Thirty cycles of PCR were performed with the condition of 94° C. (30″), 62° C. (30″) and 72° C. (30″). PCR products were analyzed using 2% agarose gel.
Clinical assessments. For the primary efficacy variable, time (in days, after randomization) to meeting any one of the following two criteria: (a) a significant suicide attempt; and (b) hospitalization due to imminent suicide risk. Type 1 Event is defined as combination of above two items. For secondary efficacy variables, the following were determined: (a) percentage of subjects with significant suicide attempts; (b) percentage of subjects with hospitalization due to imminent suicide risk; (c) change from baseline in the total score of the Positive and Negative Syndrome Scale (PANSS); (d) change from baseline in the Positive subtotal of PANSS; and (e) change from baseline in the Negative subtotal of PANSS.
Statistic analysis. The SAS Version 8.2 for Windows package was used for statistical analysis. The continuous and dischotomous variables in demographic differences between the genotype groups were compared using non-parametric ANOVA and Fisher's exact test, respectively. The differential effects of genotypes on the time to Type 1 event were evaluated using log rank test. Age, gender, substance abuse, and lifetime suicide attempts were adjusted in further analysis using the Cox proportional hazards model.

[2] = tested on: patients with schizophrenia or schizoaffective disorders; assay: as above; type: in vivo, human
[3] = All with schizoaffective disorder, genotype L/L (10≦/10≦)
[4] = All with schizoaffective disorder, genotype S/L (10≦/9≧)
[5] = All with schizoaffective disorder, genotype S/S (9≧/9≧)
[6] = All with schizophrenia, genotype L/L (10≦/10≦)
[7] = All with schizophrenia, genotype S/L (10≦/9≧)
[8] = All with schizophrenia, genotype S/S (9≧/9≧)
[9] = Caucasian, VNTR genotype 9≧/9≧, end of study
[10] = Caucasian, VNTR genotype 10≦/9≧, end of study
[11] = Caucasian, VNTR genotype 10≦/10≦, end of study
[12] = Caucasians with schizoaffective disorder, genotype L/L (10≦/10≦)
[13] = Caucasians with schizoaffective disorder, genotype S/L (10≦/9≧)
[14] = Caucasians with schizoaffective disorder, genotype S/S (9≧/9≧)
[15] = Caucasians with schizophrenia, genotype L/L (10≦/10≦)
[16] = Caucasians with schizophrenia, genotype S/L (10≦/9≧)
[17] = Caucasians with schizophrenia, genotype S/S (9≧/9≧)
[18] = Whole race group, VNTR genotype 9≧/9≧, end of study
[19] = Whole race group, VNTR genotype 10≦/9≧, end of study
[20] = Whole race group, VNTR genotype 10≦/10≦, end of study

CN1CCN(C2=Nc3cc(Cl)ccc3Nc3ccccc32)CC1 [Clozapine, 8-chloro-11-(4-methyl-1-piperazinyl)-5H-dibenzo[be][1,4]diazepine]
End point Type 1 event: No [1, 3]: 30 (75%) numbers of subjects (%) | End point Type 1 event: Yes [1, 3]: 10 (25%) numbers of subjects (%) | End point Type 1 event: No [1, 4]: 25 (83%) numbers of subjects (%) | End point Type 1 event: Yes [1, 4]: 5 (17%) numbers of subjects (%) | End point Type 1 event: No [1, 5]: 7 (70%) numbers of subjects (%) | End point Type 1 event: Yes [1, 5]: 3 (30%) numbers of subjects (%) | End point Type 1 event: No [1, 6]: 53 (87%) numbers of subjects (%) | End point Type 1 event: Yes [1, 6]: 8 (13%) numbers of subjects (%) | End point Type 1 event: No [1, 7]: 35 (87%) numbers of subjects (%) | End point Type 1 event: Yes [1, 7]: 5 (13%) numbers of subjects (%) | End point Type 1 event: No [1, 8]: 4 (50%) numbers of subjects (%) | End point Type 1 event: Yes [1, 8]: 4 (50%) numbers of subjects (%) | End point Type 1 event: No [1, 9]: 9 (56%) numbers of subjects (%) | End point Type 1 event: Yes [1, 9]: 7 (44%) numbers of subjects (%) | End point Type 1 event: No [1, 10]: 45 (85%) numbers of subjects (%) | End point Type 1 event: Yes [1, 10]: 8 (15%) numbers of subjects (%) | End point Type 1 event: No [1, 11]: 67 (83%) numbers of subjects (%) | End point Type 1 event: Yes [1, 11]: 14 (17%) numbers of subjects (%) | End point Type 1 event: No [1, 12]: 28 (76%) numbers of subjects (%) | End point Type 1 event: Yes [1, 12]: 9 (24%) numbers of subjects (%) | End point Type 1 event: No [1, 13]: 22 (85%) numbers of subjects (%) | End point Type 1 event: Yes [1, 13]: 4 (15%) numbers of subjects (%) | End point Type 1 event: No [1, 14]: 7 (70%) numbers of subjects (%) | End point Type 1 event: Yes [1, 14]: 3 (30%) numbers of subjects (%) | End point Type 1 event: No [1, 15]: 39 (89%) numbers of subjects (%) | End point Type 1 event: Yes [1, 15]: 5 (11%) numbers of subjects (%) | End point Type 1 event: No [1, 16]: 23 (85%) numbers of subjects (%) | End point Type 1 event: Yes [1, 16]: 4 (15%) numbers of subjects (%) | End point Type 1 event: No [1, 17]: 2 (33%) numbers of subjects (%) | End point Type 1 event: Yes [1, 17]: 4 (67%) numbers of subjects (%) | Adjusted Hazard Ratio (95% CI), association between VNTR polymorphism and Type 1 event ([1]; Caucasians): 0.296 (0.120-0.733) | Unadjusted Hazard Ratio (95% CI), association between VNTR polymorphism and Type 1 event ([1]; Caucasians): 0.307 (0.130-0.723) | End point Type 1 event: No [1, 18]: 11 (61%) numbers of subjects (%) | End point Type 1 event: Yes [1, 18]: 7 (39%) numbers of subjects (%) | End point Type 1 event: No [1, 19]: 60 (86%) numbers of subjects (%) | End point Type 1 event: Yes [1, 19]: 10 (14%) numbers of subjects (%) | End point Type 1 event: No [1, 20]: 83 (82%) numbers of subjects (%) | End point Type 1 event: Yes [1, 20]: 18 (18%) numbers of subjects (%) | patients calculated to be poor responders ([1]; according to the SLC6A3 genotypes): about 10% | Adjusted Hazard Ratio (95% CI), association between VNTR polymorphism and Type 1 event ([1]; whole population): 0.396 (0.167-0.936) | Unadjusted Hazard Ratio (95% CI), association between VNTR polymorphism and Type 1 event ([1]; whole population): 0.342 (0.148-0.788) | patients who experienced Type 1 events at the end of study ([2]; subpopulation with the two risk factors (VNTR in 3'-UTR and exon 9 polymorphism of SLC6A3)): About 40% | patients who had Type 1 events at the end of study ([2]; subpopulation without the two risk factors (VNTR in 3'-UTR and exon 9 polymorphism of SLC6A3)): 15%

Cc1cc2c(s1)Nc1ccccc1N=C2N1CCN(C)CC1 [Olanzapine, olanzapine]
End point Type 1 event: No [1, 3]: 22 (60%) numbers of subjects (%) | End point Type 1 event: Yes [1, 3]: 15 (40%) numbers of subjects (%) | End point Type 1 event: No [1, 4]: 22 (67%) numbers of subjects (%) | End point Type 1 event: Yes [1, 4]: 11 (33%) numbers of subjects (%) | End point Type 1 event: No [1, 5]: 4 (57%) numbers of subjects (%) | End point Type 1 event: Yes [1, 5]: 3 (43%) numbers of subjects (%) | End point Type 1 event: No [1, 6]: 50 (82%) numbers of subjects (%) | End point Type 1 event: Yes [1, 6]: 11 (18%) numbers of subjects (%) | End point Type 1 event: No [1, 7]: 32 (76%) numbers of subjects (%) | End point Type 1 event: Yes [1, 7]: 10 (24%) numbers of subjects (%) | End point Type 1 event: No [1, 8]: 8 (80%) numbers of subjects (%) | End point Type 1 event: Yes [1, 8]: 2 (20%) numbers of subjects (%) | End point Type 1 event: No [1, 9]: 6 (60%) numbers of subjects (%) | End point Type 1 event: Yes [1, 9]: 4 (40%) numbers of subjects (%) | End point Type 1 event: No [1, 10]: 45 (76%) numbers of subjects (%) | End point Type 1 event: Yes [1, 10]: 14 (24%) numbers of subjects (%) | End point Type 1 event: No [1, 11]: 59 (76%) numbers of subjects (%) | End point Type 1 event: Yes [1, 11]: 19 (24%) numbers of subjects (%) | End point Type 1 event: No [1, 12]: 22 (67%) numbers of subjects (%) | End point Type 1 event: Yes [1, 12]: 11 (33%) numbers of subjects (%) | End point Type 1 event: No [1, 13]: 21 (75%) numbers of subjects (%) | End point Type 1 event: Yes [1, 13]: 7 (25%) numbers of subjects (%) | End point Type 1 event: No [1, 14]: 3 (50%) numbers of subjects (%) | End point Type 1 event: Yes [1, 14]: 3 (50%) numbers of subjects (%) | End point Type 1 event: No [1, 15]: 37 (82%) numbers of subjects (%) | End point Type 1 event: Yes [1, 15]: 8 (18%) numbers of subjects (%) | End point Type 1 event: No [1, 16]: 24 (77%) numbers of subjects (%) | End point Type 1 event: Yes [1, 16]: 7 (23%) numbers of subjects (%) | End point Type 1 event: No [1, 17]: 3 (75%) numbers of subjects (%) | End point Type 1 event: Yes [1, 17]: 1 (25%) numbers of subjects (%) | Adjusted Hazard Ratio (95% CI), association between VNTR polymorphism and Type 1 event ([1]; Caucasians): 0.542 (0.185-1.590) | Unadjusted Hazard Ratio (95% CI), association between VNTR polymorphism and Type 1 event ([1]; Caucasians): 0.548 (0.194-1.547) | End point Type 1 event: No [1, 18]: 12 (71%) numbers of subjects (%) | End point Type 1 event: Yes [1, 18]: 5 (29%) numbers of subjects (%) | End point Type 1 event: No [1, 19]: 54 (72%) numbers of subjects (%) | End point Type 1 event: Yes [1, 19]: 21 (28%) numbers of subjects (%) | End point Type 1 event: No [1, 20]: 72 (73%) numbers of subjects (%) | End point Type 1 event: Yes [1, 20]: 26 (27%) numbers of subjects (%) | Adjusted Hazard Ratio (95% CI), association between VNTR polymorphism and Type 1 event ([1]; whole population): 0.824 (0.317-2.138) | Unadjusted Hazard Ratio (95% CI), association between VNTR polymorphism and Type 1 event ([1]; whole population): 0.886 (0.353-2.225)
